{
  "source": "PubChem BioAssay AID180",
  "about": "(DTP/NCI, 2004)",
  "tested_on": "BDF1 mice, Adenocarcinoma 755 s.c., tumor weight T/C",
  "assay": "NCI In Vivo Anticancer Drug Screen. Data for tumor model Adenocarcinoma 755 (subcutaneous) in B6D2F1 (BDF1) mice",
  "details": "endpoint: mean tumor weight, schedule: Q01DX011 (ip), higher = larger tumour",
  "summary_of_the_method": "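Readout: T/C, i.e. treated-group measurement over vehicle-control measurement. Endpoint is survival or tumor size in tumor-bearing mice given compound.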",
  "key": {"[1]": {"details": "dose: 50.0 mg/kg/injection, vehicle: carboxymethylcellulose (CMC)"}, "[2]": {"details": "dose: 25.0 mg/kg/injection, vehicle: carboxymethylcellulose (CMC)"}, "[3]": {"details": "dose: 100.0 mg/kg/injection, vehicle: carboxymethylcellulose (CMC)"}, "[4]": {"details": "dose: 100.0 mg/kg/injection, vehicle: saline"}, "[5]": {"details": "dose: 200.0 mg/kg/injection, vehicle: saline"}, "[6]": {"details": "dose: 25.0 mg/kg/injection, vehicle: other"}, "[7]": {"details": "dose: 75.0 mg/kg/injection, vehicle: carboxymethylcellulose (CMC)"}},
  "note": "Several values for one entry are separate records, joined by “and”; a condition that tells them apart may be missing. Equal values may be shown once.",
  "data": [
    {"smiles": "Nc1nc2ncc(CNc3ccc(C(=O)NC(CCC(=O)O)C(=O)O)cc3)nc2c(=O)[nH]1", "note": "(stereo not drawn)", "values": [
      {"measurement": "T/C", "setting": "dose: 6.95 mg/kg/injection, vehicle: carboxymethylcellulose (CMC)", "value": "78 % of control"},
      {"measurement": "T/C", "setting": "dose: 13.9 mg/kg/injection, vehicle: carboxymethylcellulose (CMC)", "value": "77 % of control"},
      {"measurement": "T/C", "setting": "dose: 17.38 mg/kg/injection, vehicle: carboxymethylcellulose (CMC)", "value": "221 % of control and 79 % of control"},
      {"measurement": "T/C", "setting": "dose: 22.24 mg/kg/injection, vehicle: carboxymethylcellulose (CMC)", "value": "63 % of control"},
      {"measurement": "T/C", "setting": "dose: 27.8 mg/kg/injection, vehicle: carboxymethylcellulose (CMC)", "value": "52 % of control and 60 % of control and 75 % of control"},
      {"measurement": "T/C", "setting": "dose: 34.75 mg/kg/injection, vehicle: carboxymethylcellulose (CMC)", "value": "65 % of control"},
      {"measurement": "T/C", "setting": "dose: 40.0 mg/kg/injection, vehicle: carboxymethylcellulose (CMC)", "value": "70 % of control"},
      {"measurement": "T/C", "setting": "[1]", "value": "50 % of control"},
      {"measurement": "T/C", "setting": "dose: 55.6 mg/kg/injection, vehicle: carboxymethylcellulose (CMC)", "value": "33 % of control and 55 % of control"},
      {"measurement": "T/C", "setting": "dose: 60.0 mg/kg/injection, vehicle: carboxymethylcellulose (CMC)", "value": "27 % of control"},
      {"measurement": "T/C", "setting": "dose: 65.0 mg/kg/injection, vehicle: carboxymethylcellulose (CMC)", "value": "68 % of control"}
    ]},
    {"smiles": "Oc1ccc2ccccc2c1N=Nc1ccc(F)cc1", "values": [
      {"measurement": "T/C", "setting": "dose: 15.0 mg/kg/injection, vehicle: carboxymethylcellulose (CMC)", "value": "70 % of control"},
      {"measurement": "T/C", "setting": "[2]", "value": "104 % of control"},
      {"measurement": "T/C", "setting": "dose: 31.0 mg/kg/injection, vehicle: carboxymethylcellulose (CMC)", "value": "37 % of control"},
      {"measurement": "T/C", "setting": "dose: 45.0 mg/kg/injection, vehicle: carboxymethylcellulose (CMC)", "value": "33 % of control"},
      {"measurement": "T/C", "setting": "[1]", "value": "30 % of control"},
      {"measurement": "T/C", "setting": "dose: 50.0 mg/kg/injection, vehicle: saline", "value": "38 % of control"},
      {"measurement": "T/C", "setting": "dose: 62.0 mg/kg/injection, vehicle: carboxymethylcellulose (CMC)", "value": "46 % of control"},
      {"measurement": "T/C", "setting": "[3]", "value": "27 % of control"},
      {"measurement": "T/C", "setting": "[4]", "value": "12 % of control"},
      {"measurement": "T/C", "setting": "[5]", "value": "22 % of control"},
      {"measurement": "T/C", "setting": "dose: 224.0 mg/kg/injection, vehicle: carboxymethylcellulose (CMC)", "value": "9 % of control"},
      {"measurement": "T/C", "setting": "dose: 400.0 mg/kg/injection, vehicle: carboxymethylcellulose (CMC)", "value": "12 % of control and 15 % of control"},
      {"measurement": "T/C", "setting": "dose: 400.0 mg/kg/injection, vehicle: saline", "value": "15 % of control"},
      {"measurement": "T/C", "setting": "dose: 450.0 mg/kg/injection, vehicle: carboxymethylcellulose (CMC)", "value": "17 % of control"},
      {"measurement": "T/C", "setting": "dose: 600.0 mg/kg/injection, vehicle: saline", "value": "14 % of control"},
      {"measurement": "T/C", "setting": "dose: 800.0 mg/kg/injection, vehicle: carboxymethylcellulose (CMC)", "value": "21 % of control"},
      {"measurement": "T/C", "setting": "dose: 1600.0 mg/kg/injection, vehicle: carboxymethylcellulose (CMC)", "value": "8 % of control"}
    ]},
    {"smiles": "c1nc(N2CC2)c2cnn(C3CCCCO3)c2n1", "note": "(stereo not drawn)", "values": [
      {"measurement": "T/C", "setting": "dose: 1.5 mg/kg/injection, vehicle: other", "value": "101 % of control"},
      {"measurement": "T/C", "setting": "dose: 3.0 mg/kg/injection, vehicle: other", "value": "102 % of control"},
      {"measurement": "T/C", "setting": "dose: 6.0 mg/kg/injection, vehicle: other", "value": "81 % of control"},
      {"measurement": "T/C", "setting": "dose: 12.0 mg/kg/injection, vehicle: other", "value": "99 % of control"},
      {"measurement": "T/C", "setting": "dose: 12.5 mg/kg/injection, vehicle: saline", "value": "30 % of control"},
      {"measurement": "T/C", "setting": "[6]", "value": "113 % of control"},
      {"measurement": "T/C", "setting": "dose: 25.0 mg/kg/injection, vehicle: saline", "value": "45 % of control"}
    ]},
    {"smiles": "O=C(OCC1OC(n2cnc3c(=S)nc[nH]c32)C(OC(=O)c2ccc([N+](=O)[O-])cc2)C1OC(=O)c1ccc([N+](=O)[O-])cc1)c1ccc([N+](=O)[O-])cc1", "note": "(stereo not drawn)", "values": [
      {"measurement": "T/C", "setting": "dose: 6.25 mg/kg/injection, vehicle: other", "value": "70 % of control"},
      {"measurement": "T/C", "setting": "dose: 12.5 mg/kg/injection, vehicle: other", "value": "85 % of control"},
      {"measurement": "T/C", "setting": "[6]", "value": "58 % of control and 68 % of control"},
      {"measurement": "T/C", "setting": "dose: 50.0 mg/kg/injection, vehicle: other", "value": "52 % of control and 76 % of control"},
      {"measurement": "T/C", "setting": "dose: 75.0 mg/kg/injection, vehicle: other", "value": "8 % of control"},
      {"measurement": "T/C", "setting": "dose: 150.0 mg/kg/injection, vehicle: other", "value": "1 % of control"},
      {"measurement": "T/C", "setting": "dose: 200.0 mg/kg/injection, vehicle: other", "value": "1 % of control and 6 % of control"},
      {"measurement": "T/C", "setting": "dose: 250.0 mg/kg/injection, vehicle: other", "value": "3 % of control"}
    ]},
    {"smiles": "CC[N+](C)(C)c1ncnc2nc[nH]c12", "values": [
      {"measurement": "T/C", "setting": "dose: 12.0 mg/kg/injection, vehicle: carboxymethylcellulose (CMC)", "value": "88 % of control"},
      {"measurement": "T/C", "setting": "dose: 17.0 mg/kg/injection, vehicle: carboxymethylcellulose (CMC)", "value": "80 % of control"},
      {"measurement": "T/C", "setting": "[2]", "value": "47 % of control and 52 % of control"},
      {"measurement": "T/C", "setting": "dose: 37.0 mg/kg/injection, vehicle: carboxymethylcellulose (CMC)", "value": "33 % of control"},
      {"measurement": "T/C", "setting": "[1]", "value": "22 % of control"},
      {"measurement": "T/C", "setting": "[7]", "value": "6 % of control"},
      {"measurement": "T/C", "setting": "[3]", "value": "3 % of control"}
    ]},
    {"smiles": "CCCCCn1cnc2c(=S)nc(N)[nH]c21", "values": [
      {"measurement": "T/C", "setting": "dose: 3.1 mg/kg/injection, vehicle: carboxymethylcellulose (CMC)", "value": "112 % of control"},
      {"measurement": "T/C", "setting": "dose: 6.2 mg/kg/injection, vehicle: carboxymethylcellulose (CMC)", "value": "76 % of control"},
      {"measurement": "T/C", "setting": "dose: 12.5 mg/kg/injection, vehicle: carboxymethylcellulose (CMC)", "value": "28 % of control"},
      {"measurement": "T/C", "setting": "[2]", "value": "10 % of control"},
      {"measurement": "T/C", "setting": "[7]", "value": "2 % of control"}
    ]},
    {"smiles": "CN(C)N=Nc1ccc(C(=O)NC(CCC(=O)NN)C(=O)NN)cc1", "note": "(stereo not drawn)", "values": [
      {"measurement": "T/C", "setting": "[4]", "value": "92 % of control"},
      {"measurement": "T/C", "setting": "dose: 150.0 mg/kg/injection, vehicle: saline", "value": "81 % of control"}
    ]},
    {"smiles": "CN(C)C1C(=O)C(C(=O)NCNC(CCS(C)=O)C(=O)O)=C(O)C2(O)C(=O)C3=C(O)c4c(O)cccc4C(C)(O)C3CC12", "note": "(stereo not drawn)", "values": [
      {"measurement": "T/C", "setting": "[5]", "value": "68 % of control"}
    ]},
    {"smiles": "CC(C)CCSc1nc(N)nc2nc[nH]c12", "values": [
      {"measurement": "T/C", "setting": "dose: 4.68 mg/kg/injection, vehicle: methylcellulose (MC)", "value": "59 % of control"},
      {"measurement": "T/C", "setting": "dose: 9.37 mg/kg/injection, vehicle: methylcellulose (MC)", "value": "29 % of control"},
      {"measurement": "T/C", "setting": "dose: 18.75 mg/kg/injection, vehicle: methylcellulose (MC)", "value": "21 % of control"},
      {"measurement": "T/C", "setting": "dose: 37.5 mg/kg/injection, vehicle: methylcellulose (MC)", "value": "12 % of control"}
    ]},
    {"smiles": "CC(=O)Nc1c(Cl)c(Cl)c2c(c1Cl)Cc1cc(F)ccc1-2", "values": [
      {"measurement": "T/C", "setting": "dose: 125.0 mg/kg/injection, vehicle: carboxymethylcellulose (CMC)", "value": "91 % of control"},
      {"measurement": "T/C", "setting": "dose: 125.0 mg/kg/injection, vehicle: saline", "value": "29 % of control"},
      {"measurement": "T/C", "setting": "dose: 250.0 mg/kg/injection, vehicle: carboxymethylcellulose (CMC)", "value": "41 % of control"},
      {"measurement": "T/C", "setting": "dose: 250.0 mg/kg/injection, vehicle: saline", "value": "29 % of control"},
      {"measurement": "T/C", "setting": "dose: 500.0 mg/kg/injection, vehicle: carboxymethylcellulose (CMC)", "value": "42 % of control"},
      {"measurement": "T/C", "setting": "dose: 500.0 mg/kg/injection, vehicle: saline", "value": "17 % of control"},
      {"measurement": "T/C", "setting": "dose: 1000.0 mg/kg/injection, vehicle: carboxymethylcellulose (CMC)", "value": "25 % of control"},
      {"measurement": "T/C", "setting": "dose: 1000.0 mg/kg/injection, vehicle: saline", "value": "14 % of control"}
    ]},
    {"smiles": "O=C1C=Cc2ccc(O)cc2C1=O", "values": [
      {"measurement": "T/C", "setting": "dose: 2.0 mg/kg/injection, vehicle: saline", "value": "103 % of control"},
      {"measurement": "T/C", "setting": "dose: 8.0 mg/kg/injection, vehicle: saline", "value": "50 % of control"}
    ]},
    {"smiles": "Cn1c(=O)c2c(nc(C(=N)SCC(=O)O)n2C)n(C)c1=O", "values": [
      {"measurement": "T/C", "setting": "dose: 25.0 mg/kg/injection, vehicle: methylcellulose (MC)", "value": "61 % of control"}
    ]}
  ]
}
